Source: PMC11772392, “Host Plant Odour and Sex Pheromone are Integral to Mate Finding in Codling Moth” (Journal of Chemical Ecology, 2025)

Biological target: T1, CpomOR3 (Cydia pomonella, UniProt H9A5M3)
T1 construct: gene OR3; full-length ORF cloned in pUASg-HA.attB, expressed in Drosophila melanogaster ab3A olfactory neurons (pOr22a-Gal4ki empty neuron line); with Odorant receptor coreceptor (Drosophila melanogaster, endogenous in the ab3A neuron)
T1 sequence (H9A5M3 1-426): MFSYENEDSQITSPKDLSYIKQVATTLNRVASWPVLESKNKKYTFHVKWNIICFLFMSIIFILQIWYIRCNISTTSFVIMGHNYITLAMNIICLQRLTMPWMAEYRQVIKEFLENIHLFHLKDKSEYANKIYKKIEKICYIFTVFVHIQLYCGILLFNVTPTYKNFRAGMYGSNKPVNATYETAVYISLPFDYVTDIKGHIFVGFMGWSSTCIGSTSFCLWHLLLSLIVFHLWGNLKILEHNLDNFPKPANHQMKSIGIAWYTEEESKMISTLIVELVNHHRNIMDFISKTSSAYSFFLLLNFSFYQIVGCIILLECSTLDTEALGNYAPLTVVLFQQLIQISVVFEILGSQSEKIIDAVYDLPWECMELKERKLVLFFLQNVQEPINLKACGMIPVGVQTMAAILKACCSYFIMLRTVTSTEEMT
T1 sequence (Q9VNB5 1-486 partner): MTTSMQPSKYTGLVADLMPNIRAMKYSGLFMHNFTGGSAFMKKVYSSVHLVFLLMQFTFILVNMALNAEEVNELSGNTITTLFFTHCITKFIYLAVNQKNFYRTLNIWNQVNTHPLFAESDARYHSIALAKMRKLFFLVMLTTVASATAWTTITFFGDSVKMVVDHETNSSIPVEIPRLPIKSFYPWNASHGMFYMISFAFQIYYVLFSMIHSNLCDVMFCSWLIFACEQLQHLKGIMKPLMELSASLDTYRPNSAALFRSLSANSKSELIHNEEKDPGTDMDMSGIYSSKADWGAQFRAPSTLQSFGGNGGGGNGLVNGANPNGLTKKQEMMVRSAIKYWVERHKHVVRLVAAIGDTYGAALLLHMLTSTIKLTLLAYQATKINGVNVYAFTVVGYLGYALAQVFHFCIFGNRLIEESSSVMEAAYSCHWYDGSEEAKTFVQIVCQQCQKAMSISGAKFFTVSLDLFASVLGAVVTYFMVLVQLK
Test: GC-coupled single sensillum recording (GC-SSR), ab3A neuron
Assay type: cell-based
Details: pear ester eluting from apple fruit headspace on GC, dose not stated, n = 3; activation; synthetic pear ester dose response (1, 10, 25 ng) not given
Text: GC-coupled single sensillum recording (GC-SSR), ab3A neuron on CpomOR3 | antennal sensilla expressing CpomOR3 began to respond at the retention time of pear ester

Q: With `CCCCC/C=C\C=C\C(=O)OCC` [pear ester, ethyl (E,Z)-2,4-decadienoate] as the compound, how does the spike frequency response read?
A: Its spike frequency response is 12.9 ± 4.1 spikes/s.
